Test results as given in publication PMC9852552, “Emission of floral volatiles is facilitated by cell-wall non-specific lipid transfer proteins” (Nature Communications, 2023).
“And” between values parts separate entries of the source, which are not always exact repeats. Equal values may be shown once. Read-outs that look alike come from different tables or passages of the source.

Columns and labels:
Format in all cases: binding, Petunia hybrida
recombinant PhnsLTP3 = assay: TNS displacement assay with recombinant PhnsLTP3; details: for Kd / Percentage fluorescence quenched: PhnsLTP3 1 µM, TNS 3 µM; for Kd: means ± S.E., n = 3; for Percentage fluorescence quenched: three biological replicates (c2-c4); for Percentage fluorescence quenched (%): biological replicates 1-3, Supplementary Figure 16
Procedure: (§1) To directly test whether PhnsLTP3 can bind petunia VOCs, in vitro displacement assays were performed using the recombinant PhnsLTP3 protein and fluorescent 6-(p-toluidino)−2-naphthalenesulfonate (TNS) in the presence of petunia volatiles. […] TNS fluoresces strongly when bound to the hydrophobic regions of the protein, while it has weak fluorescence in an aqueous solution. […] Potential ligands of the protein will displace the bound TNS from the hydrophobic protein pocket into the aqueous environment leading to a decrease in the fluorescent signal, which was used to calculate the dissociation constant of the protein with ligand. […] To test whether PhnsLTP2 and PhnsLTP3 can bind other VOCs, we assayed the terpenoids: limonene, linalool, and nerolidol, as well as methyl jasmonate in TNS displacement assays. Both PhnsLTP2 and PhnsLTP3 were able to bind tested volatile compounds with Kds in the micromolar range (Supplementary Figs. 16 and 17).
Fig. 5 Binding kinetics of recombinant PhnsLTP3 with VOCs emitted by petunia flowers. TNS displacement assays were performed at fixed concentrations of PhnsLTP3 (1 µM) and TNS (3 µM) and the fluorescence was measured before and after the tested compounds were added at various concentrations. The results are expressed as percentage of fluorescence quenched with respect to the concentration of added compound. The binding curves were obtained by non-linear fitting to the Michaelis-Menten equation (solid line in the graph) and the dissociation constants Kd [µM] were obtained. […] All data are means ± S.E. (n = 3 biological replicates).
(§2) The fluorescence-based-binding assays were performed largely according to previous publications[12],[52] with slight modifications. […] All mixtures were excited at 320 nm, and the fluorescence emission at 437 nm was recorded using a plate reader (SpectraMax iD3, Molecular Devices) at equilibrium after 5 min of incubation at 25 °C giving the background fluorescence Fmix0 and FTNS0 . The tested ligands dissolved in 2 µL DMSO were then added to the mixtures and TNS only to different final concentrations, and the fluorescence emissions were recorded at equilibrium after 5 min of incubation ( Fmixligand and FTNSligand ). To account for the change in the TNS fluorescence intensity upon adding the solvent DMSO, the background fluorescence of TNS ( FTNSsol ) as well as each PhnsLTP with TNS ( Fmixsol ) were measured. The ratios RTNS=FTNSsol/FTNS0 and Rmix=Fmixsol/Fmix0 were calculated to calibrate the fluorescence. Three measurements were taken for each concentration. The results were expressed as a percentage of fluorescence quenched Fmixligand/Rmix−FTNSligand/RTNS/Fmix0−FTNS0×100% . The corresponding dissociation constants kd were obtained by non-linear regression fitting of the binding kinetics to the Michaelis-Menten equation.
The binding curves of PhnsLTP3 with various VOC compounds were obtained by non-linear fitting to the one-binding-site (Eq. (1)) and two-binding-site (Eq. (2)) models. The equations assume that the ligand binds to multiple independent binding sites and that the binding to each site follows the law of mass action:1 %offluorescencequenched=Bmax×[TNS]/kd+[TNS] 2 %offluorescencequenched=Bmax1×[TNS]/kd1+[TNS]+Bmax2×[TNS]/kd2+[TNS] […]
PhnsL TP3 (1 µ M)and TNS (3 µ M)and the fluorescence was measured before and after the tested compounds were added at various concentrations. The results are expressed as percentage of fluorescence quenched with respect to the concentration of added compound.
The binding curves were obtained by non-linear fitting to the Michaelis-Menten equation (solid line in the graph) and the dissociation constants Kd [µ M]were obtained. All data are means ±S.E. (n = 3 biological replicates).
Supplementary Figure 25 | Analysis of number of binding sites of PhnsLTP3.
TNS displacement assay was performed at fixed concentrations of PhnsLTP3 (1 µM) and TNS (3 µM) and the fluorescence was measured before and after methyl […]

recombinant PhnsLTP2 = assay: TNS displacement assay with recombinant PhnsLTP2; details: PhnsLTP2 1 µM, TNS 3 µM; non-linear fitting to Michaelis-Menten equation; means ± S.E., n = 3; read-out: dissociation constant Kd (PhnsLTP2)
Procedure: as §1, §2
Supplementary Figure 16 | Binding kinetics of recombinant PhnsLTP2 with phenylpropanoids/benzenoids by petunia flowers, terpenoids and methyl jasmonate.
TNS displacement assays were performed at fixed concentrations of PhnsLTP2 (1 µM) and TNS (3 µM) and the fluorescence was measured before and after the tested compounds were added at various concentrations. The results are expressed as percentage of fluorescence quenched with respect to the concentration of added compound. The binding curves were obtained by non-linear fitting to the Michaelis-Menten equation (solid line in the graph) and the dissociation constants Kd [µM] were obtained. Phenylacetaldehyde, eugenol, and […]
corresponding binding curves. All data are means ±S.E. (n = 3 biological replicates).

PhnsLTP2 = assay: Activity of PhnsLTP2 with TNS (TNS fluorescence); details: three biological replicates (c2-c4); listed as PhnsLTP2+TNS
Procedure: (§3) To directly test whether PhnsLTP3 can bind petunia VOCs, in vitro displacement assays were performed using the recombinant PhnsLTP3 protein and fluorescent 6-(p-toluidino)−2-naphthalenesulfonate (TNS) in the presence of petunia volatiles. […] TNS fluoresces strongly when bound to the hydrophobic regions of the protein, while it has weak fluorescence in an aqueous solution. […] Potential ligands of the protein will displace the bound TNS from the hydrophobic protein pocket into the aqueous environment leading to a decrease in the fluorescent signal, which was used to calculate the dissociation constant of the protein with ligand. […]
(§4) The fluorescence-based-binding assays were performed largely according to previous publications[12],[52] with slight modifications. […] All mixtures were excited at 320 nm, and the fluorescence emission at 437 nm was recorded using a plate reader (SpectraMax iD3, Molecular Devices) at equilibrium after 5 min of incubation at 25 °C giving the background fluorescence Fmix0 and FTNS0 . The tested ligands dissolved in 2 µL DMSO were then added to the mixtures and TNS only to different final concentrations, and the fluorescence emissions were recorded at equilibrium after 5 min of incubation ( Fmixligand and FTNSligand ). […] The ratios RTNS=FTNSsol/FTNS0 and Rmix=Fmixsol/Fmix0 were calculated to calibrate the fluorescence. […]

PhnsLTP3 = assay: Activity of PhnsLTP3 with TNS (TNS fluorescence); details: for TNS fluorescence with boiled PhnsLTP3: three biological replicates
Procedure: as §1, §2
Supplementary Figure 15 | Protein purification and characterization of PhnsLTP1, PhnsLTP2, and PhnsLTP3 activity with TNS. a, SDS-PAGE analysis of PhnsLTP1 after affinity chromatography on Ni-NTA agarose (lane A) and subsequent cation exchange chromatography on HiTrapTM SP HP-Cytiva (lane B). 5.3 µg protein were loaded per each lane .b, SDS-PAGE analysis of 8.75 µg of purified PhnsLTP 1, PhnsLTP 2 , and PhnsLTP 3. […] P values were determined by one-way ANOVA with the Tukey’s multiple comparisons test relative to TNS background (black) and boiled PhnsLTP3 in the presence of 200 mM DTT (blue). […]

PhnsLTP1 = assay: Activity of PhnsLTP1 with TNS (TNS fluorescence)
Procedure: as §3, §4

[1] = non-linear fitting to Michaelis-Menten equation (one binding site), read-out: dissociation constant Kd (PhnsLTP3)

## COC(=O)c1ccccc1 [Methylbenzoate]
Recombinant PhnsLTP3; [1]
  Kd: 271 ± 91.1 µM
Recombinant PhnsLTP3; two-binding-site fit, read-out: dissociation constant Kd1 (PhnsLTP3, two-binding-site model)
  Kd: 521 ± 89.5 µM
Recombinant PhnsLTP3; two-binding-site fit, read-out: dissociation constant Kd2 (PhnsLTP3, two-binding-site model)
  Kd: 2 ± 1.9 µM
Recombinant PhnsLTP3; VOC concentration 3 µM
  Percentage fluorescence quenched: 6.48% and 6.57% (2×)
  Percentage fluorescence quenched (%): 8.70% and 11.37% and 17.83%
Recombinant PhnsLTP3; VOC concentration 30 µM
  Percentage fluorescence quenched: 10.07% and 16.15% and 14.94%
  Percentage fluorescence quenched (%): 3.75% and 8.76% and 8.44%
Recombinant PhnsLTP3; VOC concentration 300 µM
  Percentage fluorescence quenched: 37.30% and 35.09% and 38.77%
  Percentage fluorescence quenched (%): 16.10% and 21.79% and 13.64%
Recombinant PhnsLTP3; VOC concentration 1500 µM
  Percentage fluorescence quenched: 74.64% and 66.75% and 71.33%
  Percentage fluorescence quenched (%): 40.72% and 46.43% and 46.19%
Recombinant PhnsLTP3; VOC concentration 3000 µM
  Percentage fluorescence quenched: 78.82% and 71.40% and 74.18%
  Percentage fluorescence quenched (%): 46.60% and 49.81% and 49.98%
Recombinant PhnsLTP2
  Kd: 534 ± 302 µM

## Cc1ccc(Nc2ccc3cc(S(=O)(=O)O)ccc3c2)cc1 [TNS, 6-(p-toluidino)−2-naphthalenesulfonate]
PhnsLTP2
  TNS fluorescence with PhnsLTP2: 1288048 A.U. and 1292857 A.U. and 1304928 A.U.
PhnsLTP3; boiled PhnsLTP3 in the presence of 200 mM DTT (negative control), listed as Boiled PhnsLTP3+TNS (200 mM DTT)
  TNS fluorescence with boiled PhnsLTP3: 508777 A.U. and 481415 A.U. and 534530 A.U.
PhnsLTP3; boiled PhnsLTP3 in the presence of 400 mM DTT (negative control), listed as Boiled PhnsLTP3+TNS (400 mM DTT)
  TNS fluorescence with boiled PhnsLTP3: 531842 A.U. and 534148 A.U. and 522476 A.U.
PhnsLTP3; relative to buffer and denatured, dithiothreitol-reduced PhnsLTP3 controls
  TNS fluorescence in the presence of PhnsLTP3 (in words): intense TNS fluorescence
PhnsLTP3; three biological replicates (c2-c4), listed as PhnsLTP3+TNS
  TNS fluorescence with PhnsLTP3: 1399068 A.U. and 1386931 A.U. and 1338392 A.U.
PhnsLTP1
  TNS-binding activity of PhnsLTP1 (in words): did not display TNS-binding activity
PhnsLTP1; three biological replicates (c2-c4), listed as PhnsLTP1+TNS
  TNS fluorescence with PhnsLTP1: 198735 A.U. and 195455 A.U. and 188087 A.U.

## COc1cc(C=O)ccc1O [Vanillin]
Recombinant PhnsLTP3; [1]
  Kd: 26.3 ± 10.4 µM
Recombinant PhnsLTP3; VOC concentration 3 µM
  Percentage fluorescence quenched: 5.78% and 5.07% and 1.21%
Recombinant PhnsLTP3; VOC concentration 30 µM
  Percentage fluorescence quenched: 6.62% and 14.22% and 7.63%
Recombinant PhnsLTP3; VOC concentration 300 µM
  Percentage fluorescence quenched: 35.76% and 34.45% and 15.77%
Recombinant PhnsLTP3; VOC concentration 1500 µM
  Percentage fluorescence quenched: 17.05% and 24.17% and 26.21%
Recombinant PhnsLTP3; VOC concentration 3000 µM
  Percentage fluorescence quenched: 22.96% and 20.23% and 21.72%
Recombinant PhnsLTP2
  Kd: 114 ± 12.9 µM
